Test results as given in article PMC7468568 (Nature chemical biology, 2020).
In brackets after ≈: the same amount, converted by molar mass.

Legend:
[1] = tested on: c-Fos protein expression in the paraventricular nucleus (PVN); experiment: HPA axis activation: c-Fos labeling in the PVN; assay type: in vivo, mouse; conditions: for c-Fos protein expression in PVN: C57BL/6J mice
[2] = biological target: protein targets of photoprobe 10 in hNAPE-PLD-FLAG-transfected HEK293T cells (Homo sapiens, UniProt Q6IQ20); experiment: Chemical proteomics-based photoaffinity labeling; assay type: cell-based; conditions: photoprobe 10 2 μM versus LEI-401 20 μM
Chain of protein targets of photoprobe 10 in hNAPE-PLD-FLAG-transfected HEK293T cells (Q6IQ20 whole entry): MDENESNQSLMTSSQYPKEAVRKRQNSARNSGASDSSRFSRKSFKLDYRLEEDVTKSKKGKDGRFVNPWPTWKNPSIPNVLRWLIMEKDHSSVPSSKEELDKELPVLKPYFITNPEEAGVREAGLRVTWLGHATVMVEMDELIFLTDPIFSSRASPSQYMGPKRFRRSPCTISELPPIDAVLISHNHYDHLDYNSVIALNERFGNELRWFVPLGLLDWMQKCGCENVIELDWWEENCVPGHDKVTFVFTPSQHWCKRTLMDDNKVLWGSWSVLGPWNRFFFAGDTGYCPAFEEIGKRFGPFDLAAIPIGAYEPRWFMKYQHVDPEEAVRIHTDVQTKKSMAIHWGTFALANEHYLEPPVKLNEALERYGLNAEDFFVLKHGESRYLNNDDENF

[3] = Hepatocyte clearance, human; assay type: in vitro ADME; conditions: 1 μM
[4] = Kinetic aqueous solubility; assay type: physicochemical; conditions: phosphate buffer pH 6.5
brain NAE levels = experiment: Lipid measurements in mouse brain; assay type: in vivo
DAGLα/β, MAGL and ABHD6 = experiment: In vitro ABPP of brain of LEI-401-treated mice; assay type: in vivo, mouse; conditions: male C57BL/6J mice; 30 mg kg^−1 i.p.; 2 h; ABPP of brain membrane lysate
logD-assay = assay type: physicochemical; conditions: octanol/water
mouse PGP-transporter = mouse PGP-transporter (Mus musculus, UniProt P21447); experiment: P-glycoprotein active efflux assay, mouse; assay type: in vitro ADME
Chain of mouse PGP-transporter (P21447 whole entry): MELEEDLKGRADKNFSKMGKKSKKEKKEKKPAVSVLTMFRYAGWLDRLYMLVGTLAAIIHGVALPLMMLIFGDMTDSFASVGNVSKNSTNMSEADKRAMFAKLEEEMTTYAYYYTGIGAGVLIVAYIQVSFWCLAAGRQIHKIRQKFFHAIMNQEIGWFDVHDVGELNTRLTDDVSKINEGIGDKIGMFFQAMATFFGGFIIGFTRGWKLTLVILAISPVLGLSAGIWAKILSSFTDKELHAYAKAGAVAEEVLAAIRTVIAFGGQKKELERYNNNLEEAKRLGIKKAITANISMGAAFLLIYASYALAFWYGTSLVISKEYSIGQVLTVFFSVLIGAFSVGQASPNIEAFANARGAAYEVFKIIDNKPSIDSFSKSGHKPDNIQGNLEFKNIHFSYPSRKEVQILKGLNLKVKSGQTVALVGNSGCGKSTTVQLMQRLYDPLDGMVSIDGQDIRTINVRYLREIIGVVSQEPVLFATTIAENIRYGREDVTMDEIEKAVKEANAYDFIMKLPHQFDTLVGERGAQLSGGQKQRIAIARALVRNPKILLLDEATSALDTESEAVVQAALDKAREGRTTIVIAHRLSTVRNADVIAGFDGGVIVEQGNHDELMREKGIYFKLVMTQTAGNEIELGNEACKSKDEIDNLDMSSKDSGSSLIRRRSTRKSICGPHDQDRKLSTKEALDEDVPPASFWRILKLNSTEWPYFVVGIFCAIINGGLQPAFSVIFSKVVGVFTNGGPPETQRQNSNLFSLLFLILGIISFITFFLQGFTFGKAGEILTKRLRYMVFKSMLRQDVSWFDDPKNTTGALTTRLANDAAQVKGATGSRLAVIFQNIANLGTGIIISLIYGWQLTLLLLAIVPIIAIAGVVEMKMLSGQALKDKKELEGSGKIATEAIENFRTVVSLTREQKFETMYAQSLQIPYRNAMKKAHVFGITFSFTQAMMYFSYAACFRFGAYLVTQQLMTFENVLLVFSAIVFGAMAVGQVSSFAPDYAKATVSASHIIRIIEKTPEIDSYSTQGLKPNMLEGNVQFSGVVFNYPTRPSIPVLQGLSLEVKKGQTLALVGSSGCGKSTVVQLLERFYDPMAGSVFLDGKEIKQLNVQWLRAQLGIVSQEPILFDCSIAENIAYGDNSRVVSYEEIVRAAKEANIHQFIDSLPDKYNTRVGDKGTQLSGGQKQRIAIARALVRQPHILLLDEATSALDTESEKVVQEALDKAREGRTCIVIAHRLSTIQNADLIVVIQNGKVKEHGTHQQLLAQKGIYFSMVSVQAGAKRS

[5] = Hepatocyte clearance, mouse; assay type: in vitro ADME; conditions: 1 μM
[6] = Plasma protein binding, mouse; assay type: in vitro ADME; conditions: equilibrium dialysis
Neuro-2a cells [7] = experiment: Live cell count with trypan blue; assay type: cell-based, mouse; conditions: 10 μM, 2 h
ABHD6 = biological target: T1, ABHD6 (Mus musculus, UniProt Q8R2Y0); experiment: Gel-based ABPP, mouse brain membrane proteome; assay type: biochemical
T1 sequence (Q8R2Y0 1-336): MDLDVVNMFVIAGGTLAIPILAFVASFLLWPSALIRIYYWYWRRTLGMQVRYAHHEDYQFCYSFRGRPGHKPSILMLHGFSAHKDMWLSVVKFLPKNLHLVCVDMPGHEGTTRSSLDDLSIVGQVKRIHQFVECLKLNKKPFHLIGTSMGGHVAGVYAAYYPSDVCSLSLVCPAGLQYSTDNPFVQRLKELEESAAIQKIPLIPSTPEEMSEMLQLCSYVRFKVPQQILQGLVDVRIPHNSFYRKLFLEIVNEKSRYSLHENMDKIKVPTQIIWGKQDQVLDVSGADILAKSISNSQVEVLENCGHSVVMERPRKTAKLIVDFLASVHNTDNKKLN

[8] = Plasma protein binding, human; assay type: in vitro ADME; conditions: equilibrium dialysis
human MAGL = biological target: T2, human MAGL (Homo sapiens, UniProt Q99685); experiment: Natural substrate-based fluorescence assay MAGL; assay type: biochemical
T2 sequence (Q99685 1-303): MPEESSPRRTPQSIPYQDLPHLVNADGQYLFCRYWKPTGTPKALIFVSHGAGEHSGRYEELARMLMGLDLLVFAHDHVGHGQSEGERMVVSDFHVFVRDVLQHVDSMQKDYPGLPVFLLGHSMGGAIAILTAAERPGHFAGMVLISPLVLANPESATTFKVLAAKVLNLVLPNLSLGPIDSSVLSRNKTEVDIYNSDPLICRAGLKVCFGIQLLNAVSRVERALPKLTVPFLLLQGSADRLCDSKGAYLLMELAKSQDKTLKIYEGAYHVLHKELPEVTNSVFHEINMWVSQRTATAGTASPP

cannabinoid CB2 receptor = cannabinoid CB2 receptor (Homo sapiens, UniProt P34972); experiment: [3H]CP55940 radioligand displacement assay CB2; assay type: binding; conditions: at 10 μM
Chain of cannabinoid CB2 receptor (P34972 whole entry): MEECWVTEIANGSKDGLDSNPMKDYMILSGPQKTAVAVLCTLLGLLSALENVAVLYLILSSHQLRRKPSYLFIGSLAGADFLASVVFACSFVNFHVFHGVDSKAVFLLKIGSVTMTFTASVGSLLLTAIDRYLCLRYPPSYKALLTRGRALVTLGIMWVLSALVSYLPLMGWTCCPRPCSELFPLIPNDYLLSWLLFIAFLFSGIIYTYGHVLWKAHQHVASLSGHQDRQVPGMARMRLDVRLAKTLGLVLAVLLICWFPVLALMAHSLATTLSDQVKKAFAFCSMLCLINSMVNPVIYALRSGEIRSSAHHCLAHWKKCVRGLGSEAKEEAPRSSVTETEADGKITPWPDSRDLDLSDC

Neuro-2a cells [9] = experiment: Targeted lipidomics in Neuro-2a cells; assay type: cell-based, mouse; conditions: 10 μM, 2 h
[10] = Microsomal clearance, mouse; assay type: in vitro ADME; conditions: 1 μM
human PGP-transporter = human PGP-transporter (Homo sapiens, UniProt P08183); experiment: P-glycoprotein active efflux assay, human; assay type: in vitro ADME
Chain of human PGP-transporter (P08183 whole entry): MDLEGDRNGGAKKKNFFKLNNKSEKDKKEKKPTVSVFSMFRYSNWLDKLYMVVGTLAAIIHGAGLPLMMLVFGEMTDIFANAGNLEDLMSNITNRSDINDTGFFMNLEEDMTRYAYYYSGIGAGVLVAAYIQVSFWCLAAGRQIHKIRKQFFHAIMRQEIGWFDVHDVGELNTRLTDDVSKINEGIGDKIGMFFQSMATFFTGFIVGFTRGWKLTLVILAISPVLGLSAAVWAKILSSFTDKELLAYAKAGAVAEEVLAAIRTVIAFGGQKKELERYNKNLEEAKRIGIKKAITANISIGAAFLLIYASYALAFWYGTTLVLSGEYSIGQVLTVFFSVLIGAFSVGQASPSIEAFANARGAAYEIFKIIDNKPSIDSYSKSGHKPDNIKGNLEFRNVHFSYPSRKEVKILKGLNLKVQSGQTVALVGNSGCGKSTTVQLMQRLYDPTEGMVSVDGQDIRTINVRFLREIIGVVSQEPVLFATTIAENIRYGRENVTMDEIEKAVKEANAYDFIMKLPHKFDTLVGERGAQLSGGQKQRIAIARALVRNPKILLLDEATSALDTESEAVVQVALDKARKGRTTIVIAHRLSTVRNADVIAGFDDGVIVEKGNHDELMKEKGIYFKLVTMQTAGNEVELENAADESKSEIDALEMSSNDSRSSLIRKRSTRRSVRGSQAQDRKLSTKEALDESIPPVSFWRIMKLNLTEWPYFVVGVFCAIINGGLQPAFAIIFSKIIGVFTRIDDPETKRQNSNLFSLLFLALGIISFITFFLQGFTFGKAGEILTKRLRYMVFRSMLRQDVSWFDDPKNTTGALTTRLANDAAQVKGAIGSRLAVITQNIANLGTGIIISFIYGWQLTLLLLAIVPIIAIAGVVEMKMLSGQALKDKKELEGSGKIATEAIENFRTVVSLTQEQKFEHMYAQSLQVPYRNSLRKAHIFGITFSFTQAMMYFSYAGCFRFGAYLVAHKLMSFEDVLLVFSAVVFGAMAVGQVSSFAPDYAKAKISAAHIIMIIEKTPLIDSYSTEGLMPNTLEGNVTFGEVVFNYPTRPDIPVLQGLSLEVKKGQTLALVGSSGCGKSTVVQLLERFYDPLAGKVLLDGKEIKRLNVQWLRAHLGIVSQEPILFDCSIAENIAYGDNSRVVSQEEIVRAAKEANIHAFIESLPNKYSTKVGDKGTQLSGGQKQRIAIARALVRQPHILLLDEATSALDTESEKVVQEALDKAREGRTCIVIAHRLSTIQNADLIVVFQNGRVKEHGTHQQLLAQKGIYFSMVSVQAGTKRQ

FAAH = biological target: T3, FAAH (Mus musculus, UniProt O08914); experiment: Gel-based ABPP, mouse brain membrane proteome; assay type: biochemical; conditions: at 10 μM
T3 sequence (O08914 1-579): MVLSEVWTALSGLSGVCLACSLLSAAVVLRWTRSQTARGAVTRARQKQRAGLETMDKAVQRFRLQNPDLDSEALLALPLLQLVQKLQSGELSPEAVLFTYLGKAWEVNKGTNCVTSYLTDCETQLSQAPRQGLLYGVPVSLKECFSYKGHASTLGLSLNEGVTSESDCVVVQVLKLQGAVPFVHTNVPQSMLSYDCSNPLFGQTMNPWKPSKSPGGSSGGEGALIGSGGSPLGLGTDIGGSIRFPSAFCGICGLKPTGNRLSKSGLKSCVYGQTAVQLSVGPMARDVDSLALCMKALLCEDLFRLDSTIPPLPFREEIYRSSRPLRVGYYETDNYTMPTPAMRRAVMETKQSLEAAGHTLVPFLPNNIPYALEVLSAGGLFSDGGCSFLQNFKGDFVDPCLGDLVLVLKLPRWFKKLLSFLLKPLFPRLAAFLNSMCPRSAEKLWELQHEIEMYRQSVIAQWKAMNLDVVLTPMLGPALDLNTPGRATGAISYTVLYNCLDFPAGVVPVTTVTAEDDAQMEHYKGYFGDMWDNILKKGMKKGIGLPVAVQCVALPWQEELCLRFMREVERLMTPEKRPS

NAPE-PLD = biological target: T4, NAPE-PLD (Mus musculus, UniProt Q8BH82); experiment: LC-MS-based endogenous NAPE-PLD activity assay; assay type: biochemical
T4 sequence (Q8BH82 1-396): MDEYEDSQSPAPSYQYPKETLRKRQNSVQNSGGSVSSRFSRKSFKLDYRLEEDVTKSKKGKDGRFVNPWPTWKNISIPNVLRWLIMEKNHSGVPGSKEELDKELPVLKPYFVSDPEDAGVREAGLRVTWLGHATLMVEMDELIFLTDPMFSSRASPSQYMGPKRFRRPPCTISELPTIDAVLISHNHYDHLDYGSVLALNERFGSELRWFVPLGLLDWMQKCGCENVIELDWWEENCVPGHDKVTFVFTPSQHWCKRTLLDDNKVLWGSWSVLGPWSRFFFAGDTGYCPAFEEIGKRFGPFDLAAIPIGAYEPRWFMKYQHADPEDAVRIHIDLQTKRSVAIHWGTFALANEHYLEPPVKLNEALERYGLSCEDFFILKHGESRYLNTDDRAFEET

DAGLα = experiment: Natural substrate-based fluorescence assay DAGLα; assay type: biochemical, human and mouse
PLA2G4E = biological target: T5, PLA2G4E (Homo sapiens, UniProt Q3MJ16); experiment: Gel-based ABPP, hPLA2G4E overexpressing membrane lysate; assay type: biochemical; conditions: at 10 μM
T5 sequence (Q3MJ16 1-868): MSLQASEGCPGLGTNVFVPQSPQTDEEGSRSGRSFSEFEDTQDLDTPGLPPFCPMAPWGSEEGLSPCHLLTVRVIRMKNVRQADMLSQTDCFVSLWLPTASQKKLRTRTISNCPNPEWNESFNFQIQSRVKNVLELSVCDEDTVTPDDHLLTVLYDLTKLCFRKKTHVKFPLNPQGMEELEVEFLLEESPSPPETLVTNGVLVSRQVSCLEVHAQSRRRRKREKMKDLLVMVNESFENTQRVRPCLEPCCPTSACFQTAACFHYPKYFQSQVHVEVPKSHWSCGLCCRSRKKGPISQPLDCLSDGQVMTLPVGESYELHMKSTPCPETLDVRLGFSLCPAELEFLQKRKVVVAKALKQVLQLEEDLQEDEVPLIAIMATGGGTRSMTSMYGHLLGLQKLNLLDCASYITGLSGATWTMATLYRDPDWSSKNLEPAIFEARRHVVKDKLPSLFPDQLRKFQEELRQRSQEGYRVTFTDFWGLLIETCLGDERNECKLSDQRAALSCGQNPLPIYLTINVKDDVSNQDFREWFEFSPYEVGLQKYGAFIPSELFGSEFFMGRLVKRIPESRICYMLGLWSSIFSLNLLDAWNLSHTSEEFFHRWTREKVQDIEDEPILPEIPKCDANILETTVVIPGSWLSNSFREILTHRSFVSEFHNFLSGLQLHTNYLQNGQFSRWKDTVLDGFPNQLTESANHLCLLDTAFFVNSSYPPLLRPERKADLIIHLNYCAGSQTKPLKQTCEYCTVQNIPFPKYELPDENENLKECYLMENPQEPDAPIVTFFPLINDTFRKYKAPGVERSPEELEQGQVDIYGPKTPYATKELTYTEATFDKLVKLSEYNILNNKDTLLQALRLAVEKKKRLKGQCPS

[11] = Microsomal clearance, human; assay type: in vitro ADME; conditions: 1 μM
mDAGLβ = biological target: T6, mDAGLβ (Mus musculus, UniProt Q91WC9); experiment: Surrogate substrate-based fluorescence assay DAGLβ; assay type: biochemical
T6 sequence (Q91WC9 1-669): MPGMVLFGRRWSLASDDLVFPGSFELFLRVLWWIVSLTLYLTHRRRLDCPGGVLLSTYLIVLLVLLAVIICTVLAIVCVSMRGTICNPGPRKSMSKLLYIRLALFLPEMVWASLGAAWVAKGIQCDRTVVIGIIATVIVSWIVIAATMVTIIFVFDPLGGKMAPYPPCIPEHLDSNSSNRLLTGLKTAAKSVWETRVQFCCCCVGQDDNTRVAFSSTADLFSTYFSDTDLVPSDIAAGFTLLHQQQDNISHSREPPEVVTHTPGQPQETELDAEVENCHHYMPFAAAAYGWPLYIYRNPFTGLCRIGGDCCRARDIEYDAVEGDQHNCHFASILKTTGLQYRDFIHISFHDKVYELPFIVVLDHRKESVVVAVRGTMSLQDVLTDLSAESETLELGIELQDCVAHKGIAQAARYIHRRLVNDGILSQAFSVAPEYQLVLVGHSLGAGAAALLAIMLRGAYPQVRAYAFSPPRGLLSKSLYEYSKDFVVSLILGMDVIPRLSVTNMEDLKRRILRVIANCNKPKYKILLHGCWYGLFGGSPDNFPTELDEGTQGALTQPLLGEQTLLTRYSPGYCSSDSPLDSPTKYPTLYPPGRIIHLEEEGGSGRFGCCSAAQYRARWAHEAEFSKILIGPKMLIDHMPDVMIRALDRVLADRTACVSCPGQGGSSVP

cannabinoid CB1 receptor = cannabinoid CB1 receptor (Homo sapiens, UniProt P21554); experiment: [3H]CP55940 radioligand displacement assay CB1; assay type: binding; conditions: at 10 μM
Chain of cannabinoid CB1 receptor (P21554 whole entry): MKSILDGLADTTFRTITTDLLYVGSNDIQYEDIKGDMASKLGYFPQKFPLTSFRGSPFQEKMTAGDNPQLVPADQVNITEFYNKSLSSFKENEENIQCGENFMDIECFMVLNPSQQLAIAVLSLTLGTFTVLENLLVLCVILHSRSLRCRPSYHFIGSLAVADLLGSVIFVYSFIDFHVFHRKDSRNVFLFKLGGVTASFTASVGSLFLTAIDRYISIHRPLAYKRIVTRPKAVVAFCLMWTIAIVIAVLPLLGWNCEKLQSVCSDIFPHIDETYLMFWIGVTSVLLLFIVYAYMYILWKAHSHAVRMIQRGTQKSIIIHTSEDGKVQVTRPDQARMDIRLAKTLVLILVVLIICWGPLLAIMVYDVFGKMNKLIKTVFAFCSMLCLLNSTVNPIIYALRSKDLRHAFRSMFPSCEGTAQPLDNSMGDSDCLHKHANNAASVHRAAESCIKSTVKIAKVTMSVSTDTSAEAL

[12] = tested on: circulating corticosterone (CORT); experiment: HPA axis activation: circulating CORT measurements; conditions: cotreatment 1 mg kg^−1 i.p. with LEI-401 30 mg kg^−1 i.p.; P = 0.0027
[13] = WT littermates of NAPE-PLD KO animals, mixed 129SvJ-C57BL/6 background

Compound: Cc1c(C(=O)NN2CCCCC2)nn(-c2ccc(Cl)cc2Cl)c1-c1ccc(I)cc1 [AM251]
- c-Fos protein expression in PVN ([1]; 3 mg kg^−1 i.p. single dose, 105 min before perfusion, P = 0.011): elevated c-Fos protein expression

Compound: O=C(NCC1CC1)c1cc(N2CC[C@H](O)C2)nc(N2CCC[C@@H](c3ccccc3)C2)n1 [LEI-401]
- competition of NAPE-PLD labeling by probe 10 [2]: labeling could be prevented
- clearance in human hepatocytes [3]: 6.9 μl min^−1 per 10^6 cells
- aqueous solubility [4]: 1.7 µg/mL (≈ 4.03 µM)
- brain 2-AG levels (brain NAE levels; C57BL/6J mice, 30 mg kg^−1 i.p.): not significantly affected
- brain anandamide level, dose response (brain NAE levels; C57BL/6J mice, 30 mg kg^−1 i.p., 2 h): significantly reduced anandamide
- brain NAE levels in NAPE-PLD KO mice (brain NAE levels; NAPE-PLD KO mice, mixed 129SvJ-C57BL/6 background): did not reduce
- brain AA levels at high dose (brain NAE levels; WT and NAPE-PLD KO mice (both genotypes), 60 mg kg^−1): decreased
- brain NAPE and pNAPE species (brain NAE levels; WT and NAPE-PLD KO mice, compared to vehicle): No change
- brain PEA and OEA levels in WT littermates (brain NAE levels; [13]): significantly reduced
- brain anandamide levels in WT littermates (brain NAE levels; [13]): not decreased
- brain anandamide level, time course (brain NAE levels; male C57BL/6J mice, 30 mg kg^−1 i.p. single dose, 1, 2, 4, 8 h, significant at 2 h, vehicle level by 4 h): significant and time-dependent reduction
- activity of DAGLα/β, MAGL and ABHD6 in the brain (DAGLα/β, MAGL and ABHD6): not affected
- logD (logD-assay): 3.3
- efflux ratio, mouse PGP-transporter (mouse PGP-transporter): 1.8
- clearance in mouse hepatocytes [5]: 28.8 μl min^−1 per 10^6 cells
- mouse protein binding [6]: > 99.8%
- cell viability (Neuro-2a cells [7]): did not show any sign of reduced cell viability
- inhibition of ABHD6 (ABHD6): did not inhibit
- human protein binding [8]: > 99.8%
- inhibition of MAGL (human MAGL): did not inhibit
- inhibitory activity, cannabinoid receptor type 2 (cannabinoid CB2 receptor): No inhibitory activities
- anandamide level (Neuro-2a cells [9]; Neuro-2a NAPE-PLD KO cells): not in NAPE-PLD KO cells
- anandamide level (Neuro-2a cells [9]; Neuro-2a WT cells): twofold reduction
- other saturated, mono- and (ω−6)-polyunsaturated NAE levels (Neuro-2a cells [9]; Neuro-2a WT cells): twofold decrease
- (ω−3)-polyunsaturated EPEA and DHEA levels (Neuro-2a cells [9]; Neuro-2a cells): did not respond
- clearance in mouse microsomes [10]: 42 μl min^−1 mg^−1 protein
- efflux ratio, human PGP-transporter (human PGP-transporter): 1.7
- inhibitory activity, FAAH (FAAH): No inhibitory activities
- c-Fos protein expression in PVN ([1]; 30 mg kg^−1 i.p. single dose, 210 min before perfusion, P< 0.0001): elevated c-Fos protein expression
- C17:0-NAE formation from C17:0-NAPE (NAPE-PLD; brain homogenates of NAPE-PLD KO mice): not from KO mice
- C17:0-NAE formation from C17:0-NAPE (NAPE-PLD; brain homogenates of WT mice): reduced C17:0-NAE formation
- inhibition of DAGLα (DAGLα): did not inhibit
- inhibitory activity, PLA2G4E (PLA2G4E): No inhibitory activities
- clearance in human microsomes [11]: 10 μl min^−1 mg^−1 protein
- inhibition of DAGLβ (mDAGLβ): did not inhibit
- inhibitory activity, cannabinoid receptor type 1 (cannabinoid CB1 receptor): No inhibitory activities

Compound: NC(=O)c1cccc(-c2cccc(OC(=O)NC3CCCCC3)c2)c1 [URB597]
- effect on LEI-401-induced c-Fos protein expression in PVN ([1]; cotreatment 1 mg kg^−1 i.p. with LEI-401 30 mg kg^−1 i.p., P=0.016): reversed by cotreatment
- plasma CORT levels in LEI-401-treated mice on cotreatment [12]: not when cotreated with a FAAH inhibitor
